The test system of data set [1] is C57BL/6J mice fed with a high-fat diet. The experiment in a line: Anti-obesity effect (body weight) on dietary-induced obesity mouse model. Type of data set: in vivo. The following applies: 12 weeks; for body weight gain inhibited, with respect to the body weight gain of the control group attributed to the high-calorie diet: once a day into the stomach, 84th day. The protocol: The 5H4PB obtained in Example 6 administered to mice fed with a high-fat diet to verify its anti-obesity effect. Five-week-old male C57BL/6J mice (supplied by Charles River Laboratories Japan, Inc.) were individually raised (one per cage) under environmental conditions involving a temperature of 20 to 26° C., a humidity of 35 to 75%, and 12-hour illumination (7:00 to 19:00). After acclimatization for approximately 1 week, the mice were divided into 6 groups each involving 6 to 8 individuals. Of the test groups, a normal group was fed with a normal solid diet CRF1 (a product of Oriental Yeast Co., Ltd., 3.57 kcal/g) during the test period, and a control group and drug administration groups were fed with a high-calorie solid diet D12492 (a product of Research Diets, Inc., 5.24 kcal/g) during the test period. The diets were freely taken, and water was also freely taken from water supply bottles.
The test substance 5H4PB (produced in Example 6) or a positive control substance rosiglitzaone (a product of Wako Pure Chemical Industries, Ltd.) was administered once a day for 12 weeks at the predetermined dose shown in Table 2 to the mice in each drug administration group. The rosiglitazone is a selective PPARγ ligand and is a substance having the effect of lowering the concentrations of glucose, fatty acid, and insulin in blood through binding to PPARγ. For the administration, body weight measurement was carried out once a week to calculate the dose to each individual. 5H4PB and rosiglitazone were each suspended in a 0.5 w/v % aqueous methylcellulose solution and diluted with the same aqueous solution to adjust the administration dose to 10 mL/kg. Then, each substance was forced-administered into the stomach using a syringe and a flexible stomach tube. […]
From the start of the test (administration), the body weight of each individual was measured at a frequency of once a week, and the average body weight of each test group was determined. […]

The test system is the same in data set [2]. The data set is described as follows: Insulin in blood of dietary-induced obesity mouse model. It is filed as in vivo. The note with it: administration groups, particularly the low-dose group; 85 days; FIG. 16. How it is done:
(§1) For each individual of the male C57BL/6J mice after a lapse of 85 days into the test of Example 9, blood was collected from the abdominal vena cava using a syringe supplemented with heparin under anesthesia with 2% isoflurane. The amount of blood collected was set to approximately 0.8 mL. The collected blood was stored under ice cooling until centrifugation. After centrifugation (conditions: 4° C., approximately 1800×g, 10 min), the upper layer was recovered to obtain plasma. The plasma was dispensed to sampling tubes and cryopreserved until measurement. The mouse adiponectin concentration contained in the mouse plasma obtained from each individual was measured using a commercially available ELISA kit, and the average adiponectin concentration of each test group was determined.
In Example 10, the amount of […] insulin contained in the mouse plasma obtained from each individual was measured using a commercially available ELISA kit, and the average insulin concentration of each test group was determined. The ordinate of the drawing depicts the insulin concentration (ng/mL) in the mouse plasma. The test group indicated by each bar of the bar graph is the same as in FIG. 15 mentioned above.

Data set [3] has the same test system. The experiment in a line: Leptin in blood of dietary-induced obesity mouse model. It is filed as in vivo. The following applies: 0.037 μg/kg/day and 0.01 mg/kg/day; 85 days; FIG. 17. How it is done: as §1
Leptin is a protein hormone that regulates appetite and metabolism. The leptin concentration in blood is known to elevate due to obesity, resulting in leptin resistance. In Example 10, the amount of mouse leptin contained in the mouse plasma obtained from each individual was measured using a commercially available ELISA kit, and the average leptin concentration of each test group was determined. The ordinate of the drawing depicts the leptin concentration (pg/mL) in the mouse plasma. The test group indicated by each bar of the bar graph is the same as in FIGS. 15 and 16 mentioned above.

Data set [4] has the same test system. The data set is described as follows: Amounts of subcutaneous fat and visceral fat in dietary-induced obesity mouse model. Type of data set: in vivo. The following applies: 85 days, relative to increase in control group over normal group. How it is done:
For each individual of the male C57BL/6J mice after lapse of 85 days into the test of Example 9, blood was collected under anesthesia with 2% isoflurane, and the mice were then euthanized. Inguinal subcutaneous fat, epididymal fat, perirenal fat, and mesenteric fat were collected from each individual. The weight of each fat was measured, and the average fat weights of each test group were determined.
The ordinate of the drawing depicts the measured weight (g) of each fat tissue. Each bar of the bar graph indicates the normal group, the control group, the 5H4PB 0.037 μg/kg/day administration group, the 5H4PB 0.01 mg/kg/day administration group, the rosiglitazone 0.037 μg/kg/day administration group, and the rosiglitazone 10 mg/kg/day administration group from the left to the right. […] Specifically, increase in the amount of each fat tissue was inhibited by approximately 35% for the inguinal subcutaneous fat, approximately 18% for the epididymal fat, approximately 13% for the perirenal fat, and approximately 16% for the mesenteric fat in the test group administered 0.037 μg/kg/day of 5H4PB, while increase in the amount of each fat tissue was inhibited by approximately 34% for the inguinal subcutaneous fat, approximately 15% for the epididymal fat, approximately 13% for the perirenal fat, and approximately 40% for the mesenteric fat in the test group administered 0.01 […] of 5H4PB, with respect to the amount of each fat tissue increased in the control group due to the high-calorie diet (the value determined by subtracting the fat tissue weight of the normal group from the fat tissue weight of the control group). Thus, 5H4PB administered at a low dose was confirmed to have subcutaneous fat and visceral fat accumulation inhibitory effects.

In data set [5] the test system is liver (hepatocytes) of C57BL/6J mice fed with a high-fat diet. The experiment in a line: Influence of administration on liver tissue (histopathological examination). It is filed as in vivo, mouse. The note with it: for deposition of fat droplets in the hepatocytes: 12 weeks, high-fat diet. An excerpt: In Example 13, the liver was collected during the collection of fat tissues from each individual and histopathologically examined. The findings from the histopathological examination were as described below.
For the individuals of the normal group, the deposition of fat droplets was not observed in the hepatocytes, whereas only the very mild infiltration of inflammatory cells was observed.

[6] abbreviates: 0.01 μg/kg/day (so in the source).

Structures are written as SMILES.

Regarding `O=C1C=C(c2ccccc2)C(O)O1` (stereo not shown) [5H4PB, 5-hydroxy-4-phenylbutenolide], in data set [1] (0.037 μg/kg/day and 0.01 mg/kg/day), the “anti-obesity effect (overall)” value is recorded as “high anti-obesity effect”. Moreover, the “body weight gain inhibited, with respect to the body weight gain of the control group attributed to the high-calorie diet” value in data set [1] (0.037 μg/kg/day) was determined as 25.8%. Moreover, the “body weight gain inhibited, with respect to the body weight gain of the control group attributed to the high-calorie diet” value in data set [1] (0.01 mg/kg/day) is 27.8%. The “insulin concentration in mouse plasma compared with the control group” value in data set [2] was “inhibition of a rise in insulin concentration was confirmed”. Further, the “leptin concentration in mouse plasma compared with the control group” value in data set [3] is recorded as “inhibition of a rise in leptin concentration was confirmed in a dose-dependent manner”. Besides, in data set [4] (setting [6]), the “increase in the amount of epididymal fat inhibited” value is on record as “approximately 15%”, the “increase in the amount of inguinal subcutaneous fat inhibited” value is “approximately 34%”, the “increase in the amount of mesenteric fat inhibited” value is “approximately 40%” and the “increase in the amount of perirenal fat inhibited” value is on record as “approximately 13%”. In data set [4] (0.037 μg/kg/day), the “increase in the amount of epididymal fat inhibited” value was “approximately 18%”, the “increase in the amount of inguinal subcutaneous fat inhibited” value was “approximately 35%”, the “increase in the amount of mesenteric fat inhibited” value is reported as “approximately 16%” and the “increase in the amount of perirenal fat inhibited” value is reported as “approximately 13%”. Also, the “deposition of fat droplets in the hepatocytes” value in data set [5] (0.037 μg/kg/day) is “no or only weak depositions of fat droplets”. The “deposition of fat droplets in the hepatocytes” value in data set [5] (0.01 mg/kg/day) is recorded as “no or only weak depositions of fat droplets”. The “hepatic damage (histopathological findings)” value in data set [5] (compared with the rosiglitazone administration groups or the control group) is listed as “free from hepatic damage”.

These data come from US9943501B2 (KOJUN JAPAN CO., LTD., priority 2014, dated 2018).
